These results are taken from patent US20230062911A1, “COMPOSITIONS AND METHODS FOR TREATING, PREVENTING, AND/OR AMELIORATING CHEMOTHERAPY-INDUCED PREMATURE OVARIAN FAILURE (POF)” (Rutgers, The State University of New Jersey, priority 2021, published 2023).

“Also recorded” adds a separate entry of the source.

One data set deals with TAp63α. Description: Phosphorylation of TAp63α in ovaries, immunostaining and western blot. The data set is classed as in vivo, CD-1 female mice. On the procedure:
(§1) FIG. 2B provides a western blot showing expression of γH2AX and pTAp63α at 3 h and 6 h. The mobility shift of TAp63α indicated phosphorylation (i.e., p-TAp63α), which further indicated cell death initiation through apoptosis.
TAp63a functions to respond to DNA damage that results in its phosphorylation and subsequent oocyte apoptosis initiation in the primordial follicles.
(§2) Next, 5-day-old CD-1 female mice were intraperitoneally injected with 10 mg/kg DOX and 50 mg/kg SP600125, a specific JNK inhibitor.

In another data set the test system is Bax, Puma, Noxa. Description: qRT-PCR of apoptosis mediators in whole neonatal ovaries. The data set is classed as in vivo, CD-1 female mice. The following applies: co-treatment with DOX. On the procedure: as §2
The next data set has as its system primordial follicles. The data set is described as follows: DOX-induced primordial follicle loss in 5-day-old mice. The data set is classed as in vivo, CD-1 female mice. Particulars: co-treatment SP600125 50 mg/kg with DOX 10 mg/kg i.p. On the procedure: as §2
Another data set relates to ovarian follicles. The data set is described as follows: Follicle counting 6 weeks after treatment of 21-day-old mice. The class given is in vivo, CD-1 female mice.
The next data set deals with CD-1 female mice. The data set is described as follows: Ovarian cyclicity by vaginal smear in 21-day-old treated mice. The data set is classed as in vivo. The following applies: 21-day-old mice, last 14 days of 6 weeks post treatment.
The subject of the next data set is γ-H2AX. Description: Ovarian expression of γ-H2AX (DNA damage marker) after DOX, immunostaining and western blot. The class given is in vivo. On the procedure:
as §1
Expression of γ-H2AX, a well-characterized biomarker of DNA double strand breaks (DDSBs) as well as the major mechanism of DOX’s cytotoxicity on tumorous cells, was detected with administration of DOX.
For orientation: A western blot detects proteins with antibodies after separation by electrophoresis.

In data set [1] the test system is JNK (c-Jun N-terminal kinase) signaling pathway. Description: RNA sequencing / Gene Ontology analysis of ovaries after DOX. The data set is classed as in vivo, CD-1 female mice. The following applies: 5-day-old mice, DOX 10 mg/kg i.p., ovaries at 6 hours. On the procedure:
Thus, the molecular mechanisms of DOX-induced primordial follicle oocyte apoptosis were investigated as described herein. Fiveday-old CD-1 female mice were intraperitoneally injected with vehicle or 10 mg/kg DOX and ovaries were harvested at 6 hours for RNA sequencing.

A further data set deals with JNK. Description: Phosphorylation of JNK in oocytes of primordial follicles, western blot and immunostaining. The class given is in vivo, CD-1 female mice. The following applies: for activation of JNK in the oocytes of primordial follicles: general statement, no dose given.

Source text for CD-1 female mice: The transition of various estrous cycle stages of three representative mice (a total of 6-8 mice in each group) are shown for each treatment group, including proestrus, estrus, metestrus, and diestrus.
Ovarian cyclicity was next examined by the method of vaginal smear in the last 14 days of the 6-week post DOX / SP600125 treatment.
Source text for ovarian follicles: Ovarian functions were examined at 6-weeks after treatment in order to evaluate the long-term effect of pharmacological JNK inhibition on female ovarian reserve and other ovary reproductive outcomes.

Turning to `O=C1c2ccccc2-c2n[nH]c3cccc1c23` [SP600125, dibenzo[cd,g]indazol-6(2H)-one], the “effect on DOX-induced hyper-phosphorylation of TAp63α” value in the data set on TAp63α (5-day-old mice, SP600125 50 mg/kg i.p. with DOX 10 mg/kg i.p., western blot) is “effectively prevented; also recorded: blocked the phosphorylation”. The “effect on cisplatin-induced phosphorylation of TAp63α” value with TAp63α (5-day-old mouse ovaries, SP600125 50 mg/kg i.p. with cisplatin 20 mg/kg i.p.) is “blocked the phosphorylation”. For the same molecule, in the data set with Bax, Puma, Noxa, the “effect on DOX-induced transcriptional induction of Bax” value is “prevented the transcriptional induction”, the “effect on DOX-induced transcriptional induction of Noxa” value was “prevented the transcriptional induction” and the “effect on DOX-induced transcriptional induction of Puma” value is on record as “prevented the transcriptional induction”. Further, the “effect on DOX-induced primordial follicle loss” value with primordial follicles is on record as “significantly ameliorated; also recorded: prevented DOX-induced primordial follicle loss”. Further, in the data set on ovarian follicles (SP600125 alone), the “numbers of all staged follicles” value is reported as “did not affect”. In addition, the “effect on DOX-induced reduction of all stages of follicles” value in the data set with ovarian follicles (co-treatment with DOX) is listed as “effectively prevented the reduction”. In addition, in the data set on CD-1 female mice (DOX / SP600125 co-treatment), the “ovarian cyclicity (estrous cycle stages)” value is “comparable ovarian cyclicity to the control group”. For the same molecule, the “ovarian cyclicity (estrous cycle stages)” value with CD-1 female mice (SP600125 alone) is “comparable ovarian cyclicity to the control group”.
`COc1cccc2c1C(=O)c1c(O)c3c(c(O)c1C2=O)C[C@@](O)(C(=O)CO)C[C@@H]3O[C@H]1C[C@H](N)[C@@H](O)[C@H](C)O1` [DOX, (8S,10S)-10-(((2R,4S,5R,6S)-4-amino-5-hydroxy-6-methyltetrahydro-2H-pyran-2-yl)oxy)-6,8,11-trihydroxy-8-(2-hydroxyacetyl)-1-methoxy-7,8,9,10-tetrahydrotetracene-5,12-dione]: the “expression of γ-H2AX in ovarian epithelial cells and oocytes” value in the data set on γ-H2AX (DOX 10 mg/kg i.p., 6 h) is given as “significantly increased”. Besides, the “time at which increased γ-H2AX expression peaked” value in the data set on γ-H2AX (after DOX treatment, western blot) stood at 6 h. The “phosphorylation of TAp63a in ovaries” value in the data set on TAp63α (6 h after DOX treatment, western blot) is on record as “hyper-phosphorylated”. In the data set on TAp63α (6 h post DOX treatment, immunostaining), the “expression of phospho-p63 in oocytes of primordial follicles” value is listed as “significantly induced”. Besides, the “JNK signaling pathway by RNA sequencing Gene Ontology analysis” value in data set [1] is recorded as “significantly changed; also recorded: activated”. Besides, the “phosphorylation of JNK in the oocytes of primordial follicles” value with JNK (5-day-old mice, DOX 10 mg/kg i.p., 6 h) was “selectively increased; also recorded: selective hyper-phosphorylation”. For the same molecule, the “activation of JNK in the oocytes of primordial follicles” value with JNK was “selectively activate”. Moreover, the “numbers of all stages of ovarian follicles (primordial, primary, secondary, antral)” value in the data set on ovarian follicles (DOX alone) is given as “remarkably reduced”. The “ovarian cyclicity (estrous cycle stages)” value in the data set on CD-1 female mice (DOX alone) is given as “interfered with mouse ovarian cyclicity”.
For `N.N.[Cl][Pt][Cl]` [cisplatin, cis-diammineplatinum (II) dichloride], in the data set with JNK, the “activation of JNK in the oocytes of primordial follicles” value is listed as “selectively activate”.
